Laboratory results published in patent US6921775B2, “Methods for modulating brain damage” (Children's Medical Center Corporation, priority 2001, dated 2005).

Columns and labels:
P7 rat pups = experiment: Hypoxia/ischemia (unilateral carotid ligation followed by hypoxia, 6% O2 for one hour) selective white matter injury model; assay type: in vivo
Excerpt: The methods used in this example are described in Follett et al. (2000) J. Neurosci. 20:9235-9241, incorporated by reference herein.
Because the white matter of premature infants at high risk for hypoxic/ischemic white matter injury is also populated with immature OLs (Kinney and Back, 1998), this age was chosen to deliver the hypoxic/ischemic insult. […] Injury was limited to the white matter without evidence of injury to cortical neurons. […] Ipsilateral injury included the loss of MBP expression in the OL processes extending into the cortex and decreased thickness of the periventricular white matter and external capsule in four of nine rats.
P7 rat pups underwent unilateral carotid ligation followed by hypoxia (6% O2 for one hour). Following hypoxia, littermates were treated with either topiramate (30 mg/kg, i.p., q12 h, 4 doses, n=12) or vehicle (n=12). 48 hours after hypoxia/ischemia, pups were evaluated with in situ end labeling (ISEL) for the presence of cell death in white matter. Briefly, coronal sections were labeled for the presence of single-stranded DNA fragments as a sensitive indicator of cell death. ISEL positive cells in white matter ipsilateral to the ligation in each of three coronal sections (at the level of the anterior hippocampus, mid-dorsal hippocampus, and posterior dorsal hippocampus) were counted and a mean was taken for each rat.
96 hours post-ischemia/hypoxia, pups were evaluated with ICC for loss of MBP expression ipsilateral to the ligation as compared to the contralateral side. Coronal sections were evaluated by immunocytochemistry with a monoclonal against MBP, and detected with fluorescent secondary antibody. Three sections were evaluated for each rat: the anterior hippocampus, the mid-dorsal hippocampus, and the posterior dorsal hippocampus. Lesion severity was assigned a value on a scale from 0 to 3 as follows: 0 if ipsilateral and colateral hemispheres were similar; 1 if ipsilateral loss was limited to cortical processes; 2, if loss of staining included thinning of the periventricular white matter; and 3 if white matter tracts included a full thickness loss of staining in the capsule. A mean severity score was obtained for immature and mature OL markers in each rat.
Litters of male Long Evans rat pups (Charles River Laboratories, Wilmington, Mass.) were raised with dams in a temperature-controlled environment with 12 hour light-dark cycles. Pups underwent carotid ligation and hypoxia at post-natal-day (P)7. They were recovered on a thermal blanket at 33-34° C. (baseline temperature for P7 rats) and returned to their dam for 48-96 hours prior to sacrifice. Treated pups were given intra-peritoneal (i.p.) injections of 0.1 cc solutions of topiramate, NBQX or vehicle every 12 hours for 48 hours at P7 and P8 for treatment, control and normal development studies.
Hypoxic/ischemic injury was generated in rats by unilateral carotid ligation followed by hypoxia (6% for 1 hour). […] The methods used in this example are described in Follett et al (2000) J. Neurosci. 20:9235-9241, incorporated by reference herein.
Briefly, rats were anesthetized with ether and the proximal internal carotid artery was isolated from the sympathetic chain and ligated. Animals requiring prolonged sedation due to technical issues were removed from the study. The animals were recovered one hour, then placed in a sealed chamber infused with nitrogen to a level of 6% O2, with body temperature maintained at 33-34° C. throughout. […] Pups were allowed a 1-2 hour period of recovery after hypoxia then returned to their dam. Pups were randomized into treatment and control groups by weight to insure no size variation existed between the subjects and controls to start. Following hypoxia animals in the treatment group were given i.p. injections of topirmate (10, 30 or 50 mg/kg in 0.1 cc PBS) or equivalent volume of saline repeat treatment every 12 hours for 48 hours. […]

OL precursor cells = experiment: Cell lineage progression (stage-specific markers A2B5, O4, O1, MBP) in OL precursor cultures; assay type: cell-based, rat; details: topiramate 30 μM, NBQX 100 μM; 0, 2, 6 and 10 days of maturation
Method: Primary oligodendrocyte precursor cells were isolated from mixed glial cultures of the forebrains of newborn Sprague-Dawley rats using a selective detachment procedure as described in detail elsewhere (McCarthy and de Vellis, 1980; Back et al., 1998), and further purified by differential adhesion (Back et al., 1998). Precursor cells were maintained in a chemically-defined medium (CDM) supplemented with recombinant human platelet derived growth factor-AA (PDGF, 10 ng/ml) and basic fibroblast growth factor (bFGF, 10 ng/ml). The CDM was Dulbecco Modified Eagle's Medium (DMEM) containing D-glucose (25 mM), L-glutamine (4 mM), sodium pyruvate (1 mM), human apo-transferrin (50 μg/ml), bovine pancreatic insulin (5 μg/ml), sodium selenium (30 nM), hydrocortisone (10 nM), D-biotin (10 nM), and bovine serum albumin (BSA, 1 mg/ml). All chemicals were from Sigma. […] Cell lineage progression was monitored by the sequential emergence of stage-specific immunochemical markers: A2B5, O4, O1, and MBP, as described previously (Back et al., 1998). […] The effect of these protocols on maturation was also assessed. Differentiation of the cultures in the absence or presence of topiramate (30 μM) or NBQX (100 μM) was monitored by cell morphology and the sequential emergence of a panel of OL stage-specific markers (A2B5, O4, O1, and MBP), following 0, 2, 6, and 10 days of maturation.

[1] = P7 rats, topiramate 30 mg/kg i.p. q12 h 4 doses, 96 hours

SMILES | white matter injury, semiquantitative lesion severity by MBP expression (P7 rat pups; P7 rats, NBQX post-treatment at termination of hypoxia, 96 hours after insult, vs vehicle-treated controls, p<0.001) | white matter injury, semiquantitative lesion severity by O1 expression (P7 rat pups; P7 rats, NBQX post-treatment at termination of hypoxia, 96 hours after insult, vs vehicle-treated controls, p<0.005) | treated pups with no detectable injury (P7 rat pups; P7 rats, NBQX post-treatment, 96 hours after insult) | rectal temperature, treated vs untreated groups (P7 rat pups; P7 rats, NBQX treatment initiated after hypoxia) | progression along the OL lineage (morphology, A2B5, O4, O1, MBP) (OL precursor cells) | protective effect at the lower dose (MBP injury) (P7 rat pups; Example 3, 10 mg/kg per dose (40 mg/kg divided over 48 hours)) | lesion severity, blinded semi-quantitative analysis of MBP expression (P7 rat pups; Example 3, 30 mg/kg topiramate every 12 hours for 48 hours, 96 hours after hypoxia, vs vehicle p<0.01) | effect at the higher dose (MBP injury) (P7 rat pups; Example 3, 50 mg/kg per dose (200 mg/kg divided over 48 hours)) | body temperature by rectal probe, treatment vs control groups (P7 rat pups; Example 3, P7 rats, monitored at each stage) | dose with maximal protective effect (MBP injury) (P7 rat pups; Example 3, partial dose response 10, 30, 50 mg/kg every 12 hours for 48 hours) | pups with less than 20 ISEL positive cells per section in subcortical white matter ipsilateral to the ligation (P7 rat pups; P7 rats, topiramate 30 mg/kg i.p. q12 h 4 doses, 48 hours after hypoxia/ischemia) | white matter cell death (ISEL positive cells) (P7 rat pups; P7 rats, topiramate 30 mg/kg i.p. q12 h 4 doses, 48 hours after hypoxia/ischemia, p<0.03) | pups with no appreciable loss of MBP expression ipsilateral to the carotid ligation (P7 rat pups; [1]) | pups with severe injury (MBP loss) (P7 rat pups; [1]) | loss of MBP expression ipsilateral to the ligation (P7 rat pups; P7 rats, topiramate 30 mg/kg i.p. q12 h 4 doses, 96 hours post-ischemia/hypoxia, p=0.04)
NS(=O)(=O)c1cccc2c1c([N+](=O)[O-])cc1nc(O)c(O)nc12 [NBQX, 2,3-Dioxo-6-nitro-1,2,3,4-tetrahydrobenzo[f]quinoxaline-7-sulphonamide] | significant attenuation of white matter injury | significant attenuation of white matter injury | three of seven | No difference in rectal temperatures | indistinguishable from the progression of the control cultures |  |  |  |  |  |  |  |  |  | 
CC1(C)O[C@@H]2[C@@H](CO[C@@]3(COS(N)(=O)=O)OC(C)(C)O[C@@H]23)O1 [topiramate] |  |  |  |  | indistinguishable from the progression of the control cultures | less efficacy | significant attenuation of lesion severity | question of possible toxicity | did not differ between treatment and control groups | 30 mg/kg/dose | Five out of six | significant decreases in white matter cell death | two out of five | None of the topiramate treated pups exhibited severe injury | significant attenuation of MBP loss
